Laboratory results as given in publication PMC7142304, “Oxadiazole-Containing Macrocyclic Peptides Potentiate Azole Activity against Pathogenic Candida Species” (mSphere, 2020).
≈ marks a conversion by molar mass, not a printed value.

Experiments:
[1] = test system: ABC transporters Cdr1 and Cdr2; experiment: Rhodamine-6G intracellular accumulation (efflux inhibition); format: cell-based; conditions: 30°C
Protocol: (A) The effect of JRF1199-1 and JRF1199-2 on filamentation of C. albicans (SN95, CaLC239) was monitored after incubation in YPD medium at 30°C or 39°C for 4 h with shaking. Images were taken by differential interference contrast microscopy. Representative fields from micrographs obtained at the same magnification for all images are presented. (B) C. albicans (Caf2-1, CaLC2742) was grown in YPD medium at 30°C for 3 h with or without 125 μM macrocycle or 10 μg/ml of beauvericin. A concentration of 1 μg/ml of rhodamine-6G was added to the cultures for another 30 min at 30°C. Cells were washed twice with phosphate-buffered saline (PBS), followed by fluorescence microscopy to monitor rhodamine-6G accumulation in cells. (C) The fluorescence of untreated cells or of cells treated with beauvericin or JRF1198-2 was quantitated by flow cytometry. Assays were performed using 250 μl of culture per well, and fluorescence was measured using the FL2 (phycoerythrin) channel in a CytoFLEX flow cytometer (Beckman Coulter Inc.) with at least 20,000 events acquired per sample. Events were gated to capture at least 90% of the entire population analyzed, discarding clumps/cellular debris. […] Growth was measured by absorbance at 600 nm after 24 h (C. parapsilosis [CpLC573], C. auris [Ci 6684, CauLC5083], and C. glabrata [BG2, CgLC1002]) or after 48 h (C. tropicalis [CtLC573]) at 30°C. […]

[2] = test system: C. glabrata, C. auris, C. tropicalis, and C. parapsilosis; experiment: Fluconazole MIC against azole-resistant non-albicans Candida panel; format: cell-based, Candida species; conditions: in the absence of macrocyclic peptides; range over the four strains; YPD, 30°C
Protocol: (D) Fluconazole dose-response assays for diverse Candida species were conducted in YPD medium without (−) or with the indicated macrocycle (62.5 μM). Growth was measured by absorbance at 600 nm after 24 h (C. parapsilosis [CpLC573], C. auris [Ci 6684, CauLC5083], and C. glabrata [BG2, CgLC1002]) or after 48 h (C. tropicalis [CtLC573]) at 30°C. Optical densities were averaged for duplicate measurements and normalized relative to the no-drug control well for each strain.
To evaluate the activity of the oxadiazole-containing macrocyclic peptides against other fungal pathogens, we tested a panel of azole-resistant non-albicans Candida species, including C. glabrata, C. auris, C. tropicalis, and C. parapsilosis. Dose-response assays were conducted using standard protocols ([14]) with a 2-fold dilution series of fluconazole, without or with JRF1197-2, JRF1198-2, or JRF1199-2 at 62.5 μM, a concentration that enhanced azole activity against C. albicans (Fig. 1).

Row | Compound | Mean Fluorescence (rhodamine-6G accumulation) ([1]; flow cytometry, FL2 channel, 3 h with 125 μM macrocycle or 10 μg/ml beauvericin, then 1 μg/ml rhodamine-6G for 30 min, at least 20,000 events) | Effect on rhodamine-6G accumulation ([1]; microscopy and flow cytometry, 125 μM macrocycle or 10 μg/ml beauvericin, YPD) | MIC [2]
1 | beauvericin | 275895.3 | enhanced rhodamine-6G accumulation | 
2 | OC(Cn1cncn1)(Cn1cncn1)c1ccc(F)cc1F [fluconazole] |  |  | 32 to 256 µg/mL (≈ 104 to 836 µM)
